Test results published in patent US20060240494A1, “Biocidal molecules, macromolecular targets and methods of production and use” (priority 2000, published 2006).
pIC50, pKd: −log10 of the molar value. Where “and” joins values, the source holds several entries; their conditions need not be identical. Equal entries are not always repeated. Where two headings read alike, the source gives them in different places. Non-standard residues stand in square brackets, D forms with d. Residues, ends and D or L forms follow the SMILES beside them. No end group written: not given here. Ac6c = NC1(C(=O)O)CCCCC1; Dap = NC[C@H](N)C(=O)O

Legend:
M. luteus = test: Growth inhibition assay, M. luteus; format: cell-based, Micrococcus luteus; conditions: Luria-Bertani rich nutrient medium
Description: Growth inhibition assays are performed using the candidate antibacterial compounds and the Gram positive microorganisms Micrococcus luteus and Bacillus megaterium, and the Gram negative microorganisms, Escherichia coli D22, Agrobacterium tumefaciens, and Salmonella typhimurium. Antibacterial assays are performed in sterilized 96-well plates (Nunc F96 microtiter plates) with a final volume of 100 μl as described in Bulet (1996), cited above. Briefly, 90 μl of a suspension of a midlogarithmic phase bacterial culture at an initial 600 nm UV absorbance of 0.001 in Luria-Bertani rich nutrient medium is added to 10 μl of serially diluted candidate compounds in sterilized water. The final compound concentrations range between 0.15 and 80 μM, and more preferably between 0.3 μM and 40 μM. The plates are incubated at 30° C. for 24 hours with gentle shaking, and the growth inhibition is measured by recording the increase of the UV absorbance at 600 nm on an SLT Labinstruments 400 ATC microplate reader. The experiments are conducted over a 7-month period.
The inhibitory concentrations (IC50) of each candidate compound is determined against each above-indicated microorganism.
As one example, this in vitro antibacterial assay was performed on a broad spectrum divalent pyrrhocoricin analog, Chex-Pyrrhocoricin-2-19-Dap-[Chex-Pyrrhocoricin-2-19-Dap(Ac)], and the results illustrated in Table 4.

recombinant E. coli DnaK = target: T1, recombinant E. coli DnaK (Escherichia coli, UniProt P0A6Y8); test: EnzChek ATPase assay, recombinant DnaK; format: biochemical; conditions: 50 molar equivalents of peptide; 22° C., 30 min; UV absorbance at 360 nm
T1 construct: purchased StressGen, Victoria, Canada
Excerpt: To determine whether the proline-rich antibacterial peptides that were predicted to bind to DnaK between the peptide binding pocket and the C-terminus would interfere with ATPase activity, a recently developed continuous spectrophotometric (colorimetric) ATPase activity assay [Rieger, C. E. et al, (1997) Anal. Biochem. 246: 86-95] was used. This assay uses using 2-amino-6-mercapto-7-methylpurine ribonucleoside (MESG)/purine nucleoside phosphorylase reaction to detect the released inorganic phosphate (EnzChek ATPase determination kit from Molecular Probes, Eugene, USA). Assays were performed in 500 μL tubes in duplicates in a total volume of 125 μL containing 20 mM tris(hydroxymethyl)amino-ethane (Tris)-HCl, pH 7.6, 1 mM MgCl2, […] (except in assaying the baseline), 5 μg of DnaK (recombinant DnaK protein from StressGen,Victoria, Canada) and 50 molar equivalents of the particular peptide, MESG and the purine nucleoside phosphorylase recommended by the manufacturer. After incubation at 22° C. for 30 min, 100 μL of the reaction mixture was transferred to a quartz cuvette and the ultraviolet (UV) absorbance at 360 nm was measured. The assay was run in a miniaturized form to increase the concentration and therefore the enzymatic activity of DnaK. In a larger, standard format the ATPase activity of DnaK without peptide addition was 6 pmol/μg/min, in line with the published data of 4 pmol/μg/min [Liberek, K. et al, (1991) Proc. Natl. Acad. Sci. USA 88: 2874-2878].

[1] = tested on: alkaline phosphatase activities of live E. coli TG-1 cells; format: cell-based; conditions: peptide 32 μg/mL; live E. coli TG-1; four independent assays
E. coli DnaK aa583-615 = E. coli DnaK aa583-615 (Escherichia coli, UniProt P0A6Y8); test: Circular dichroism of peptide - E. coli DnaK fragment mixtures; format: binding; conditions: DnaK spectrum subtracted from mixture
Excerpt: CD spectra are taken in water, and water-trifluoroethanol (TFE) mixtures to determine whether the characteristic unordered or turn→α-helix conformational transition, frequently observed for peptide fragments of helical domains of proteins, occurs at identical TFE concentrations. In pure water, the CD spectra of the E. coli and S. aureus DnaK fragments could be assigned as a type C spectrum, and reflect the dominance of type I (III) β-turns, or a mixture of type I and type II turns. […] This is an unmistakable indication of the appearance of helical structures, most likely 310-helices. The two DnaK fragments behaved identically, at least in spectral terms. While the spectral features of well-developed α-helices could already be seen at a TFE concentration as low as 10%, the intensity was increased with increasing TFE content. In 100% TFE a fully α-helical spectrum was recorded.
To estimate the bound conformation of the antibacterial peptides, the spectra of drosocin or pyrrhocoricin alone, as well as those of the E. coli and S. aureus DnaK fragments were recorded, followed by the recording of the CD spectra of antibacterial peptide-DnaK fragment mixtures. […]

[2] = within a four-hour period; Hoffmann et al, 1999; cited from earlier work
[3] = target: E. coli DnaK fragment aa588-615 (Escherichia coli, UniProt P0A6Y8); test: Fluorescence polarization with synthetic DnaK fragment aa588-615; format: binding
[4] = within a four-hour period; Hoffmann et al, 1999; cited from earlier work; remark: listed apart in the source
[5] = tested on: β-galactosidase activities of live E. coli TG-1 cells; format: cell-based; conditions: for Inhibition of enzymatic activity after 1 hour (%) β-Galactosidase: peptide 32 μg/mL, live E. coli TG-1, three independent assays
GroEL = GroEL (Escherichia coli, UniProt P0A6F5); format: binding, E. coli; parameters: purchased; host or cells: E. coli; conditions: then 1 nM fluorescein-K-pyrrhocoricin, no peptide 70 ± 10
DnaK = DnaK (Escherichia coli, UniProt P0A6Y8); format: binding, E. coli; parameters: purchased; host or cells: E. coli
bacteria = test: Bacterial killing by labeled and unlabeled pyrrhocoricin; format: cell-based
S. aureus = conditions: Otvos et al, 2000, Biochemistry; cited from earlier work
[6] = target: E. coli DnaK fragment aa583-615 (D-E helix hinge) (Escherichia coli, UniProt P0A6Y8); test: Fluorescence polarization with synthetic DnaK fragment aa583-615; format: binding
Description: The binding of the synthetic DnaK fragments to their fluorescein-labeled pyrrhocoricin counterparts was also assessed in solution, by fluorescence polarization [Lundblad, J. R. et al, (1996) Mol. Endocrinol. 10: 607-612]. For these experiments, the unlabeled peptides were serially diluted in PBS (pH 7.4) or 0.1 M Tris-HCl (pH 8.0) containing 0.1 M ethylene-diamine-tetraacetic acid (EDTA) in 50 μL final volume in 6×50 mm disposable glass borosilicate tubes. The fluoresceinated peptides were added to each tube in a 50 μL aliquot to a final concentration of 1 nM and tubes were incubated at 37° C. for 5 minutes. The extent of fluorescence anisotropy was measured on a Beacon 2000 fluorescence polarization instrument (PanVera, Madison, Wis.) and calculated as millipolarization values. The filters used were 485 nm excitation and 535 nm emission with 3 nm band width. Non-linear curve fitting was done by using a dose-response logistical transition [y=a0+a1/(1+x/a2)^a^3] and the Levenberg-Marquardt Algorithm within the SlideWrite software package. The provided Kd value (a2 coefficient) was calculated by the program.
To quantitatively characterize the pyrrhocoricin—D-E helix interaction, the complete binding curves were measured for E. coli DnaK fragments aa583-615 and aa588-615, both of SEQ ID NO: 10.

Ras = test: Competition fluorescence polarization against labeled pyrrhocoricin, Ras; format: binding; conditions: 4 μM Ras reading 52±7
[7] = target: S. aureus aa554-585 DnaK fragment (Staphylococcus aureus, UniProt P45554); test: Circular dichroism of peptide - S. aureus DnaK fragment mixtures; format: binding; conditions: wavelength of band maxima
Description: To estimate the bound conformation of the antibacterial peptides, the spectra of drosocin or pyrrhocoricin alone, as well as those of the E. coli and S. aureus DnaK fragments were recorded, followed by the recording of the CD spectra of antibacterial peptide-DnaK fragment mixtures. Finally the original spectra of the DnaK peptides were subtracted from the spectra of the mixtures, and the residual spectra, representing the conformation of the bound peptides were compared to the spectra of the antibacterial peptides alone. This exercise is justifiable only if the conformation of the protein fragments remain unchanged upon interaction with drosocin or pyrrhocoricin. […] It is expected that the binding will not modify the helix structure of the rigid DnaK fragments, but can influence the conformation of the flexible antibacterial peptides.
The results of this conformational analysis for pyrrhocoricin—E. coli DnaK interaction are as follows. The CD spectrum of the mixture of the two peptides resembled that of the DnaK fragment alone, except that the intensities were lower, due to the lower intensity of the CD spectrum of pyrrhocoricin.
To ascertain that this conformational change upon binding was not a spectroscopical artifact, the procedure was repeated with pyrrhocoricin and the DnaK peptide derived from the non-responsive strain S. aureus.

Hsp70 = Hsp70 (Homo sapiens, UniProt P0DMV8); test: EnzChek ATPase assay, recombinant Hsp70; format: biochemical; conditions: human equivalent of DnaK
E. coli infection = conditions: Otvos et al, 2000, cited from earlier work
[8] = tested on: E. coli strain (ATCC 25922); test: Validated antibacterial assay conditions, E. coli ATCC 25922; format: cell-based
E. coli D22 = conditions: Otvos et al, 2000, Protein Science; cited from earlier work

GroEL, sequence (P0A6F5 2-548 limits assumed): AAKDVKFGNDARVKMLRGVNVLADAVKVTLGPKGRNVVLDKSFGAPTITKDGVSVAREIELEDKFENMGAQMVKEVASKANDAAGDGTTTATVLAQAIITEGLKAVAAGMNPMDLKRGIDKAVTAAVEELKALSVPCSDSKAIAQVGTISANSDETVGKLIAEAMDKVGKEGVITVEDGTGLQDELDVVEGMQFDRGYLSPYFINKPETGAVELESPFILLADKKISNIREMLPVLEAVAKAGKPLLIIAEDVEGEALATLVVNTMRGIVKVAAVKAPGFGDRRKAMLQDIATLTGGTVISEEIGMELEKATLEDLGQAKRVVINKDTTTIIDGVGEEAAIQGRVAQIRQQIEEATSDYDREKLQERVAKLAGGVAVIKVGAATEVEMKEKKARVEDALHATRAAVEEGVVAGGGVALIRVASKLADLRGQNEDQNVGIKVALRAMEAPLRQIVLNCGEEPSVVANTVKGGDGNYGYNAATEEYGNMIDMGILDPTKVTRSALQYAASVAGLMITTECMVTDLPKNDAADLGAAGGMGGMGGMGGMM
DnaK, sequence (P0A6Y8 whole entry): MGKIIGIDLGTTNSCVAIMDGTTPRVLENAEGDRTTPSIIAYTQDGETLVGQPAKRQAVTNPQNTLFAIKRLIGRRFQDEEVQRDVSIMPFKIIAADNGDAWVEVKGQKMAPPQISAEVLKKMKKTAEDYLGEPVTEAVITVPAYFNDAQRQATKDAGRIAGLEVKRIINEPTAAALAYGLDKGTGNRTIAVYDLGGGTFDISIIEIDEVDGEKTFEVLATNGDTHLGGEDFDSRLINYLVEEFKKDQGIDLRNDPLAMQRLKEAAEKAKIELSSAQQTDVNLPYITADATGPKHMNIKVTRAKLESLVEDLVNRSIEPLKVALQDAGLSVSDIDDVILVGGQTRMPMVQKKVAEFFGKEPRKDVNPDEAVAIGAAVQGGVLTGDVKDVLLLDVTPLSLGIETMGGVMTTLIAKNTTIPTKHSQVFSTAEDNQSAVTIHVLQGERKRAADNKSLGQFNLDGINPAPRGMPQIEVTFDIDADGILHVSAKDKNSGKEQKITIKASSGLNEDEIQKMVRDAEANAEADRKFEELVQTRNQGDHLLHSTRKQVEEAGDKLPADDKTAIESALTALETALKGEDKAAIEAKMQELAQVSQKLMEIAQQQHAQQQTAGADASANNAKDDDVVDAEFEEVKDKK
T1 sequence (P0A6Y8 whole entry): as above
E. coli DnaK aa583-615, sequence (P0A6Y8 584-616 limits assumed): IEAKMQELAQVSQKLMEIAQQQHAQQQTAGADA
S. aureus aa554-585 DnaK fragment, sequence (P45554 554-585 limits assumed): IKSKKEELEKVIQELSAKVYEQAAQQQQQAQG
E. coli DnaK fragment aa588-615, sequence (P0A6Y8 589-616 limits assumed): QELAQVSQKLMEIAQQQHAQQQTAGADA
E. coli DnaK fragment aa583-615 (D-E helix hinge), sequence (P0A6Y8 584-616): as the sequence (P0A6Y8 584-616 limits assumed) above
Hsp70, sequence (P0DMV8 whole entry): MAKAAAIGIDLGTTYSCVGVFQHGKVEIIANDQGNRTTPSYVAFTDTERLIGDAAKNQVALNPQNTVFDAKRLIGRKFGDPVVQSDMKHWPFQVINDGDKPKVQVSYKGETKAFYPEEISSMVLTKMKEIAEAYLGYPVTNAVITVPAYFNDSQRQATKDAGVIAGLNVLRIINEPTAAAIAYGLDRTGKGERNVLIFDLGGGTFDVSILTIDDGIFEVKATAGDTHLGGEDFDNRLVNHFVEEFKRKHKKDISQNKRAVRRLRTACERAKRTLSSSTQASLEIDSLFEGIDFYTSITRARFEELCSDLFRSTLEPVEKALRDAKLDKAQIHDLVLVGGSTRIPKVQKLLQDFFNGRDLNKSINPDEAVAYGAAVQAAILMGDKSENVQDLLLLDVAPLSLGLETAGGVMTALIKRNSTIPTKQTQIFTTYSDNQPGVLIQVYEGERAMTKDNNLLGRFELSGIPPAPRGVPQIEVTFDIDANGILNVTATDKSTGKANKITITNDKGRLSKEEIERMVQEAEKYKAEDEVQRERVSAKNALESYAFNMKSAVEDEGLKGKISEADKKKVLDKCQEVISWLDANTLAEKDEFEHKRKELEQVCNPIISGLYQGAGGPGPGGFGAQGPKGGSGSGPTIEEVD

CC[C@H](C)[C@H](NC(=O)[C@@H]1CCCN1C(=O)[C@H](CCCNC(=N)N)NC(=O)[C@@H]1CCCN1C(=O)[C@@H]1CCCN1C(=O)[C@@H](NC(=O)[C@@H]1CCCN1C(=O)[C@H](CCCNC(=N)N)NC(=O)[C@@H]1CCCN1C(=O)[C@H](CC(C)C)NC(=O)[C@H](Cc1ccc(O)cc1)NC(=O)[C@H](CO)NC(=O)CNC(=O)[C@H](CCCCN)NC(=O)[C@H](CC(=O)O)NC(=O)C1(NC(=O)[C@H](CN)NC(=O)[C@H](CCCNC(=N)N)NC(=O)[C@H](CC(N)=O)NC(=O)[C@H](Cc2ccc(O)cc2)NC(=O)[C@@H](NC(=O)[C@@H]2CCCN2C(=O)[C@H](CCCNC(=N)N)NC(=O)[C@@H]2CCCN2C(=O)[C@@H]2CCCN2C(=O)[C@@H](NC(=O)[C@@H]2CCCN2C(=O)[C@H](CCCNC(=N)N)NC(=O)[C@@H]2CCCN2C(=O)[C@H](CC(C)C)NC(=O)[C@H](Cc2ccc(O)cc2)NC(=O)[C@H](CO)NC(=O)CNC(=O)[C@H](CCCCN)NC(=O)[C@H](CC(=O)O)NC(=O)C2(N)CCCCC2)[C@@H](C)O)[C@@H](C)CC)CCCCC1)[C@@H](C)O)C(=O)N[C@@H](Cc1ccc(O)cc1)C(=O)N[C@@H](CC(N)=O)C(=O)N[C@@H](CCCNC(=N)N)C(=O)N[C@@H](CNC(C)=O)C(=O)O [Chex-Pyrrhocoricin-2-19-Dap-[Chex-Pyrrhocoricin-2-19-Dap(Ac)]] (H-[Ac6c]DKGSYLPRPTPPRPIYNR[Dap][Ac6c]DKGSYLPRPTPPRPIYNR[Dap](Ac)-OH; C-terminus assumed) showed a pIC50 (M. luteus) of 4.10 to 4.40.
In the case of GKPRPYSPRPTSHPRPIRV [Drosocin], the “effect on ATPase activity of recombinant DnaK” value (recombinant E. coli DnaK) was “without affecting”, the “Inhibition of enzymatic activity after 1 hour (%) Alkaline Phosphatase” value [1] was 35 ± 27% and the “CD spectral change of the peptide upon mixing with DnaK fragment” value (from here on “CD spectral change”) (E. coli DnaK aa583-615) was “did not appear to modify the conformation”. The “degradation in diluted mouse serum” value [2] was “completely degraded”, the “binding to aa588-615 fragment” value [3] was “considerably weaker than pyrrhocoricin” and the “degradation in diluted human serum” value [4] was “completely degraded”. For the same compound, the “effect on β-galactosidase activity after 6 hours” value ([5]; 32 μg/mL, FIG. 2A) was “detrimental” and the “Inhibition of enzymatic activity after 1 hour (%) β-Galactosidase” value [5] was 98 ± 68%.
With VDKGSYLPRPTPPRPIYNRN [pyrrhocoricin] the “Millipolarization after preincubation with” value (shortened to “Millipolarization”) (GroEL; 4 μM GroEL preincubated with 4 μM unlabeled peptide, corrected with Ras readings) was 62, the “Millipolarization” value (GroEL; 4 μM GroEL preincubated with 8 μM unlabeled peptide) was 62 and the “effect on ATPase activity of recombinant DnaK” value (recombinant E. coli DnaK) was “less than half of the original value”. The “Millipolarization” value (DnaK) was 110 and 84, the “Inhibition of enzymatic activity after 1 hour (%) Alkaline Phosphatase” value [1] was 32 ± 16% and the “concentration range killing bacteria” value (bacteria) was “mid-nanomolar concentration range”. For the same compound, the “activity against S. aureus in vitro” value (S. aureus) was “inactive”, the pKd [6] was 4.29 and the “decrease of the Ras readings” value (Ras; preincubation with 4 μM peptide) was 16 millipolarization units. For the same compound, the “decrease of the Ras readings” value (Ras; preincubation with 8 μM peptide) was 27 millipolarization units, the “CD spectral change” value (E. coli DnaK aa583-615) was “redshift of both pyrrhocoricin bands” and the “CD spectral change” value [7] was “remained unchanged”. For the same compound, the “effect on ATPase activity of recombinant Hsp70” value (Hsp70) was “did not influence”, the toxicity in vivo (E. coli infection; higher dose for pyrrhocoricin, compromised animals) was “toxic to compromised animals” and the “protection of mice against E. coli infection” value (E. coli infection; low doses for pyrrhocoricin) was “protected mice”. For the same compound, the “killing of E. coli ATCC 25922” value [8] was “failed to kill”, the “killing of E. coli D22” value (E. coli D22) was “nanomolar concentrations” and the “Inhibition of enzymatic activity after 1 hour (%) β-Galactosidase” value [5] was 153 ± 57%.
